Measured values taken from patent US10940144B2, “Drug containing pyridylaminoacetic acid compound” (priority 2017, dated 2021).

Tests used:
[1] = tested on: retinal blood vessels; assay: Pharmacological Test 1: retinal vasodilatory action (retinal vascular diameter from fundus images) after intravitreal administration to rabbits; assay type: in vivo, rabbit; conditions: for Base-Corrected Retinal Vascular Diameter Change Rate (%) 1 Hour After Administration / Base-Corrected Retinal Vascular Diameter Change Rate (%) 2 Hours After Administration / Base-Corrected Retinal Vascular Diameter Change Rate (%) 6 Hours After Administration / Base-Corrected Retinal Vascular Diameter Change Rate (%) 24 Hours After Administration: 20 μL intravitreal single injection, pigmented rabbits
Experimental: In order to find a new medicinal use of omidenepag, an ester thereof, or a salt thereof, the retinal vasodilatory action in the case of administering omidenepag to rabbits was examined. Omidenepag at 4.01 mg was dissolved in dimethyl sulfoxide to a total volume of 129 μL. Of the total volume, 10 μL was added and dissolved into physiological saline, and an appropriate amount of sodium hydroxide solution was added to adjust the pH of the formulation to 6.2. Thereafter, physiological saline was further added to a total volume of 10 mL to obtain omidenepag sample 1 (containing 0.00311% (w/v) (31.1 μg/mL) of omidenepag). In addition, the base A was added to 0.1 mL of omidenepag sample 1 to a total volume of 10 mL, and omidenepag sample 2 was obtained (containing 0.0000311% (w/v) (0.311 μg/mL) of omidenepag). CP-544326 (EP2 agonist) at 5.98 mg was dissolved in dimethyl sulfoxide to a total volume of 192 μL. Of the total volume, 10 μL was added and dissolved into physiological saline, and sodium hydroxide solution was added to adjust the pH of the formulation to 6.5. Thereafter, physiological saline was further added to a total volume of 10 mL to obtain CP-544326 sample 1 (containing 0.00311% (w/v) (31.1 μg/mL) of CP-544326). In addition, the base A was added to 0.1 mL of CP-544326 sample 1 to a total volume of 10 mL, and CP-544326 sample 2 was obtained (containing 0.0000311% (w/v) (0.311 μg/mL) of CP-544326). The base A, omidenepag samples 1 and 2, and CP-544326 samples 1 and 2 as test compound solutions, each at 20 μL, were administered intravitreally (injection, single time) to examine the change in retinal vascular diameter. In addition, pigmented rabbits (strain: Dutch, sex: male, three animals per group) were used as experimental animals. 1) After holding the above experimental animals, one drop (about 0.03 mL) of a 0.4% tropicamide ophthalmic solution (trade name: Mydrin-M ophthalmic solution 0.4%) was instilled into the retinal vascular diameter measurement eye to fully dilate the pupil. Thereafter, fundus images of the measurement eyes were captured, and the retinal vascular diameters and the like immediately before administration were measured from the obtained fundus images. 2) One drop (about 0.03 mL) of a 0.4% oxybuprocaine hydrochloride ophthalmic solution (trade name: Benoxil ophthalmic solution 0.4%) was instilled into the retinal vascular diameter measurement eye of each experimental animal for local anesthesia. Thereafter, a microsyringe connected with a 30 G injection needle was used to administer 20 μL of each test compound solution into the vitreous body. 3) At 1 hour, 2 hours, 6 hours, and 24 hours after administration of each test compound solution, fundus images of the retinal vascular diameter measuring eyes were captured, and the retinal vascular diameters and the like were measured from the obtained fundus images. (a) The fundus images captured immediately before the administration, 1 hour, 2 hours, 6 hours, and 24 hours after the administration were used to measure, as the vascular diameters, (i) the vascular diameter of the retinal artery on the nose side, (ii) the vascular diameter of the retinal artery on the ear side, and (iii) the optic nerve head diameter (longitudinal diameter passing through the center of the optic nerve head). (b) The average value of (i) the vascular diameter of the retinal artery on the nose side and (ii) the vascular diameter of the retinal artery on the ear side measured from the fundus images for each time period was divided by (iii) the optic nerve head diameter to calculate the corrected retinal vascular diameter. […]

[2] = tested on: optic nerve head tissue blood flow; assay: Pharmacological Test 3: optic nerve head tissue blood flow (laser speckle flowgraphy) after intravitreal administration to rabbits; assay type: in vivo, rabbit
Experimental: In order to find anew medicinal use of omidenepag, an ester thereof, or a salt thereof, the action of increasing tissue blood flow in the optic nerve head in the case of administering omidenepag to rabbits was examined.
Omidenepag at 3.99 to 4.03 mg was dissolved in dimethyl sulfoxide to a total volume of 128 to 130 μL. Of the total volume, 10 μL was added and dissolved into physiological saline, and an appropriate amount of sodium hydroxide solution was added to adjust the pH of the formulation to 6.3 to 7.2. Thereafter, physiological saline was further added to a total volume of 10 mL to obtain omidenepag sample 3 (containing 0.00311% (w/v) (31.1 μg/mL) of omidenepag).
The base C and omidenepag sample 3 as test compound solutions, each at 20 μL, were administered intravitreally (injection, single time) to examine the change in optic nerve head tissue blood flow. In addition, pigmented rabbits (strain: Dutch, sex: male, three animals per group) were used as experimental animals. […]
3) At 1 hour and 2 hours after administration of each test compound solution, the optic nerve head tissue blood flow of the optic nerve head tissue blood flow measurement eye was measured.
(a) The ratio of the optic nerve head tissue blood flow after passage of each of the time periods of 1 hour and 2 hours after administration to the optic nerve head tissue blood flow immediately before administration (optic nerve head tissue blood flow change rate (%)) was calculated. […]
(b) For each time period after administration, the difference (base-corrected optic nerve head tissue blood flow change rate (%)) was calculated between the optic nerve head tissue blood flow change rate (%) of the group administered with the base C simultaneously carried out and the optic nerve head tissue blood flow change rate (%) of the group administered with omidenepag sample 3. […]

SMILES | Base-Corrected Retinal Vascular Diameter Change Rate (%) 1 Hour After Administration ([1]; 0.0000311% (w/v) (0.311 μg/mL)) | Base-Corrected Retinal Vascular Diameter Change Rate (%) 2 Hours After Administration ([1]; 0.0000311% (w/v) (0.311 μg/mL)) | Base-Corrected Retinal Vascular Diameter Change Rate (%) 6 Hours After Administration ([1]; 0.0000311% (w/v) (0.311 μg/mL)) | Base-Corrected Retinal Vascular Diameter Change Rate (%) 24 Hours After Administration ([1]; 0.0000311% (w/v) (0.311 μg/mL)) | Base-Corrected Retinal Vascular Diameter Change Rate (%) 1 Hour After Administration ([1]; 0.00311% (w/v) (31.1 μg/mL)) | Base-Corrected Retinal Vascular Diameter Change Rate (%) 2 Hours After Administration ([1]; 0.00311% (w/v) (31.1 μg/mL)) | Base-Corrected Retinal Vascular Diameter Change Rate (%) 6 Hours After Administration ([1]; 0.00311% (w/v) (31.1 μg/mL)) | Base-Corrected Retinal Vascular Diameter Change Rate (%) 24 Hours After Administration ([1]; 0.00311% (w/v) (31.1 μg/mL)) | retinal vasodilatory action compared with CP-544326 (in words) ([1]; at the same concentration, intravitreal, rabbits) | Base-Corrected Optic Nerve Head Tissue Blood Flow Change Rate (%) 1 Hour After Administration ([2]; 0.00311% (w/v) (31.1 μg/mL), 20 μL intravitreal single injection, pigmented rabbits, 1 hour) | Base-Corrected Optic Nerve Head Tissue Blood Flow Change Rate (%) 2 Hours After Administration ([2]; 0.00311% (w/v) (31.1 μg/mL), 20 μL intravitreal single injection, pigmented rabbits, 2 hours) | blood flow increasing action, optic nerve head (in words) ([2]; intravitreal administration, rabbits)
O=C(O)COc1cccc(CN(Cc2ccc(-n3cccn3)cc2)S(=O)(=O)c2cccnc2)c1 [CP-544326, reference compound] | 14.8% | 9.0% | 0.8% | 3.5% | 48.4% | 57.5% | 72.2% | 3.7% | – | – | – | –
O=C(O)CNc1cccc(CN(Cc2ccc(-n3cccn3)cc2)S(=O)(=O)c2cccnc2)n1 [Omidenepag, (6-{[4-(pyrazol-1-yl)benzyl](pyridin-3-ylsulfonyl)aminomethyl}pyridin-2-ylamino)acetic acid] | 35.8% | 35.4% | 22.3% | 2.9% | 81.2% | 71.9% | 88.1% | 11.8% | significantly stronger retinal vasodilatory action | 343.6% | 327.8% | significantly strong blood flow increasing action
